IC50 data for 19 molecules are collected here from US8134015B2, “Compound inhibiting in vivo phosphorous transport and medicine containing the same” (Kyowa Hakko Kirin Co., Ltd., priority 2003, dated 2012).

One assay deals with T1, rat NaPi-2b (Rattus norvegicus, UniProt Q9JJ09).
T1 construct: expressed in transfected cells; host or cells: Xenopus oocytes injected with cRNA
T1 sequence (Q9JJ09 1-695): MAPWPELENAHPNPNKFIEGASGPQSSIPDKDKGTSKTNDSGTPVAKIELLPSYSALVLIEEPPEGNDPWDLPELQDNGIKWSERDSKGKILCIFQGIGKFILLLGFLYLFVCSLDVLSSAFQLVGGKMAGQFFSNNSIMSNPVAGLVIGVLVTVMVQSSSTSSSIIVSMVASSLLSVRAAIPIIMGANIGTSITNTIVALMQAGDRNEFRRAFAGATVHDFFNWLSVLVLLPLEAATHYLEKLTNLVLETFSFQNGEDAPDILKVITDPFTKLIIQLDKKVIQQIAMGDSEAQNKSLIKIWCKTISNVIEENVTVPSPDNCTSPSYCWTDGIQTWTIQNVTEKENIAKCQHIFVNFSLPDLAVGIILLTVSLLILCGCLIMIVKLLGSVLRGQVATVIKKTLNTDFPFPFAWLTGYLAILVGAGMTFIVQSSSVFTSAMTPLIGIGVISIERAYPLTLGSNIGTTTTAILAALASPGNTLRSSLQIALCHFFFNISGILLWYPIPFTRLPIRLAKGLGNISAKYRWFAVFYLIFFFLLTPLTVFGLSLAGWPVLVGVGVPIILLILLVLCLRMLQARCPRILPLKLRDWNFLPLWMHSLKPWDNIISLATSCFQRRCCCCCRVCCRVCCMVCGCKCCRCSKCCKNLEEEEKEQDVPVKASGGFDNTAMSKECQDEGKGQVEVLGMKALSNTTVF
The assay is described as follows: Sodium-dependent phosphate uptake of Xenopus oocytes which expressed NaPi-2b (32P). The class given is cell-based. Conditions: Xenopus oocytes expressing rat NaPi-2b, 32P radioactive phosphorus; read-out: IC50 (phosphate uptake inhibitory activity). The gist of the method:
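Read-out is 32P phosphate uptake into Xenopus oocytes expressing rat intestinal NaPi-2b (cRNA injection, 2-day culture). Inhibition at 300 μM and 100 μM was derived from a single inhibition curve and given as percent.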

In another assay the target is T2, human NaPi-2a (Homo sapiens, UniProt Q06495).
T2 construct: expressed in transfected cells
T2 sequence (Q06495 1-639): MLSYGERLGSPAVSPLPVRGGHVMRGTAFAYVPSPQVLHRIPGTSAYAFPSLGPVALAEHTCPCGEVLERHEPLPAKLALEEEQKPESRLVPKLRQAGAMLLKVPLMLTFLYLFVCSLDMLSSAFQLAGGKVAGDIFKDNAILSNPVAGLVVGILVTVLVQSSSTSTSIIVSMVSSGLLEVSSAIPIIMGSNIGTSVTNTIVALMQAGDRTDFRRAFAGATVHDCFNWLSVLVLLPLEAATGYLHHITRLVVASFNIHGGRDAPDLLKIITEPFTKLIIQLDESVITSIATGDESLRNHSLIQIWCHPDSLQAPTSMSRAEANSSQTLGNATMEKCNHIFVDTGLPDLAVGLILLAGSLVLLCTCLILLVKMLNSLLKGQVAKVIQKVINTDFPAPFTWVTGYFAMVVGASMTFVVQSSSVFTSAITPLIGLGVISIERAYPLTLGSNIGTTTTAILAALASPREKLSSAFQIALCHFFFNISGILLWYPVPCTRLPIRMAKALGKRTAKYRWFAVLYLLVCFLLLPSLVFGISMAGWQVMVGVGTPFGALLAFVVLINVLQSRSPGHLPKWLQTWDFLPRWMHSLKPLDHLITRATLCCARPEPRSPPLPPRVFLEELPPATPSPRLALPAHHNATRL
The assay is described as follows: Sodium-dependent phosphate uptake of Xenopus oocytes which expressed NaPi-2a (32P). Type of assay: cell-based. Conditions: phosphate uptake, Xenopus oocytes expressing human NaPi-2a; five concentration levels. The text has this: Experiment of Sodium-Dependent Phosphate Uptake of Xenopus oocytes which Expressed NaPi-2a
In the test, a group with the addition of choline chloride (Choline Cl) was used as a negative control for nonspecific uptake, and PFA (phosphonoformic acid) was used as a positive control for phosphate transport inhibition.

Structures are written as SMILES. Some results are limits rather than exact numbers.

Take `Cc1ccc(/C=N/NC(=O)c2c(NC(=O)c3cccc(CN4CCC(CO)CC4)c3)sc3c2CCCC3)cc1C` [Compound 639, N-[3-(3,4-Dimethyl-benzylidene-hydrazinocarbonyl)-4,5,6,7-tetrahydro-benzo[b]thiophen-2-yl]-3-(4-hydroxymethyl-piperidin-1-ylmethyl)-benzamide]: the values for the IC50 on rat NaPi-2b and at human NaPi-2a were 1.84 µM and 11.1 µM, respectively.

For the molecule `Cc1ccc(/C=N/NC(=O)c2c(NC(=O)c3cccc(CN4CCC(CO)CC4)c3)sc3c2CCCC3)cc1` [Compound 640, 3-(4-Hydroxymethyl-piperidin-1-ylmethyl)-N-[3-(4-methyl-benzylidene-hydrazinocarbonyl)-4,5,6,7-tetrahydro-benzo[b]thiophen-2-yl]-benzamide], the IC50 on rat NaPi-2b worked out at 1.61 µM; against human NaPi-2a, 15.6 µM.

For `O=C(Nc1sc2c(c1C(=O)N/N=C/c1ccc(F)cc1)CCCC2)c1cccc(CN2CCC(CO)CC2)c1` [Compound 641, N-[3-(4-Fluoro-benzylidene-hydrazinocarbonyl)-4,5,6,7-tetrahydro-benzo[b]thiophen-2-yl]-3-(4-hydroxymethyl-piperidin-1-ylmethyl)-benzamide], the IC50 at rat NaPi-2b turned out to be 2.92 µM; at human NaPi-2a, 7.53 µM.

For the molecule `O=C(Nc1sc2c(c1C(=O)N/N=C/c1cccc(F)c1)CCCC2)c1cccc(CN2CCC(CO)CC2)c1` [Compound 642, N-[3-(3-Fluoro-benzylidene-hydrazinocarbonyl)-4,5,6,7-tetrahydro-benzo[b]thiophen-2-yl]-3-(4-hydroxymethyl-piperidin-1-ylmethyl)-benzamide], the IC50 at rat NaPi-2b was found to be 2.14 µM; against human NaPi-2a, 13.3 µM.

As for `Cc1ccc(/C=N/NC(=O)c2c(C)csc2NC(=O)c2cccc(CN(CCO)CCO)c2)cc1C` [Compound 786, 3-{[Bis-(2-hydroxy-ethyl)-amino]-methyl}-N-[3-(3,4-dimethyl-benzylidene-hydrazinocarbonyl)-4-methyl-thiophen-2-yl]-benzamide], the IC50 on rat NaPi-2b is 1.33 µM; against human NaPi-2a, less than 3 µM.

Turning to `Cc1ccc(/C=N/NC(=O)c2c(C)csc2NC(=O)c2cccc(CN(CCO)CCO)c2)cc1` [Compound 787, 3-{[Bis-(2-hydroxy-ethyl)-amino]-methyl}-N-[4-methyl-3-(4-methyl-benzylidene-hydrazinocarbonyl)-thiophen-2-yl]-benzamide], the IC50 at rat NaPi-2b was 1.69 µM; on human NaPi-2a, less than 3 µM.

Take `Cc1csc(NC(=O)c2cccc(CN(CCO)CCO)c2)c1C(=O)N/N=C/c1ccc(F)cc1` [Compound 788, 3-{[Bis-(2-hydroxy-ethyl)-amino]-methyl}-N-[3-(4-fluoro-benzylidene-hydrazinocarbonyl)-4-methyl-thiophen-2-yl]-benzamide]: the 50% inhibitory concentration (IC50) came out at 2.04 µM at rat NaPi-2b and 6.64 µM against human NaPi-2a.

`Cc1csc(NC(=O)c2cccc(CN(CCO)CCO)c2)c1C(=O)N/N=C/c1cccc(F)c1` [Compound 789, 3-{[Bis-(2-hydroxy-ethyl)-amino]-methyl}-N-[3-(3-fluoro-benzylidene-hydrazinocarbonyl)-4-methyl-thiophen-2-yl]-benzamide]: the IC50 at rat NaPi-2b was found to be 1.16 µM; on human NaPi-2a it was 9.28 µM.

Turning to `COc1ccc(/C=N/NC(=O)c2c(C)csc2NC(=O)c2cccc(CN(CCO)CCO)c2)cc1` [Compound 791, 3-{[Bis-(2-hydroxy-ethyl)-amino]-methyl}-N-[3-(4-methoxy-benzylidene-hydrazinocarbonyl)-4-methyl-thiophen-2-yl]-benzamide], the figures for the IC50 at rat NaPi-2b and against human NaPi-2a were 5.5 µM and 6.7 µM, respectively.

As for `Cc1ccc(/C=N/NC(=O)c2c(NC(=O)c3cccc(CN(CC(C)O)CC(C)O)c3)sc3ccccc23)cc1` (centres unmarked) [Compound 793, 3-{[Bis-(2-hydroxy-propyl)-amino]-methyl}-N-[3-(4-methyl-benzylidene-hydrazinocarbonyl)-benzo[b]thiophen-2-yl]-benzamide], the values for the IC50 on rat NaPi-2b and at human NaPi-2a were 1.41 µM and 8.46 µM, respectively.

On to `CC(O)CN(Cc1cccc(C(=O)Nc2sc3ccccc3c2C(=O)N/N=C/c2ccc(F)cc2)c1)CC(C)O` (centres unmarked) [Compound 794, 3-{[Bis-(2-hydroxy-propyl)-amino]-methyl}-N-[3-(4-fluoro-benzylidene-hydrazinocarbonyl)-benzo[b]thiophen-2-yl]-benzamide], for which the IC50 at rat NaPi-2b worked out at 0.97 µM; against human NaPi-2a it was 9.57 µM.

As to `CC(O)CN(Cc1cccc(C(=O)Nc2sc3ccccc3c2C(=O)N/N=C/c2cccc(F)c2)c1)CC(C)O` (centres unmarked) [Compound 795, 3-{[Bis-(2-hydroxy-propyl)-amino]-methyl}-N-[3-(3-fluoro-benzylidene-hydrazinocarbonyl)-benzo[b]thiophen-2-yl]-benzamide], the IC50 is 1.92 µM on rat NaPi-2b and 8.52 µM at human NaPi-2a.

For the molecule `O=C(Nc1sc2ccccc2c1C(=O)N/N=C/c1ccc(F)cc1)c1cccc(CN2CCC(CO)CC2)c1` [Compound 800, N-[3-(4-Fluoro-benzylidene-hydrazinocarbonyl)-benzo[b]thiophen-2-yl]-3-(4-hydroxymethyl-piperidin-1-ylmethyl)-benzamide], the values for the IC50 on rat NaPi-2b and at human NaPi-2a were 9.24 µM and 10 µM, respectively.

Consider `O=C(Nc1sc2ccccc2c1C(=O)N/N=C/c1cccc(F)c1)c1cccc(CN2CCC(CO)CC2)c1` [Compound 801, N-[3-(3-Fluoro-benzylidene-hydrazinocarbonyl)-benzo[b]thiophen-2-yl]-3-(4-hydroxymethyl-piperidin-1-ylmethyl)-benzamide], for which the IC50 was determined as 4.7 µM at rat NaPi-2b and 3.72 µM at human NaPi-2a.

Regarding `O=C(Nc1sc2ccccc2c1C(=O)N/N=C/c1ccc(Cl)c(C(F)(F)F)c1)c1cccc(CN2CCC(CO)CC2)c1` [Compound 802, N-[3-(4-Chloro-3-trifluoromethyl-benzylidene-hydrazinocarbonyl)-benzo[b]thiophen-2-yl]-3-(4-hydroxymethyl-piperidin-1-ylmethyl)-benzamide], the values for the IC50 on rat NaPi-2b and against human NaPi-2a were 1.2 µM and 5.96 µM, respectively.

In the case of `CC(O)CN(Cc1cccc(C(=O)Nc2sc3c(c2C(=O)N/N=C/c2cccc(F)c2)CCC3)c1)CC(C)O` (centres unmarked) [Compound 806, 3-{[Bis-(2-hydroxy-propyl)-amino]-methyl}-N-[3-(3-fluoro-benzylidene-hydrazinocarbonyl)-5,6-dihydro-4H-cyclopenta[b]thiophen-2-yl]-benzamide], the results for the IC50 at rat NaPi-2b and against human NaPi-2a were 3.9 µM and 12.1 µM, respectively.

As for `CC(O)CN(Cc1cccc(C(=O)Nc2sc3c(c2C(=O)N/N=C/c2ccc(F)cc2)CCC3)c1)CC(C)O` (centres unmarked) [Compound 807, 3-{[Bis-(2-hydroxy-propyl)-amino]-methyl}-N-[3-(4-fluoro-benzylidene-hydrazinocarbonyl)-5,6-dihydro-4H-cyclopenta[b]thiophen-2-yl]-benzamide], the IC50 is less than 1 µM on rat NaPi-2b and 9.07 µM on human NaPi-2a.

Take `CCN(CC)CCNCc1cccc(C(=O)Nc2sc3c(c2C(=O)N/N=C/c2ccc(C)c(C)c2)CCC3)c1` [Compound 810, 3-[(2-Diethylamino-ethylamino)-methyl]-N-[3-(3,4-dimethyl-benzylidene-hydrazinocarbonyl)-5,6-dihydro-4H-cyclopenta[b]-thiophen-2-yl]-benzamide]: the IC50 was determined as 6.68 µM on rat NaPi-2b and 23.8 µM at human NaPi-2a.

For the molecule `CCN(CC)CCNCc1cccc(C(=O)Nc2sc3c(c2C(=O)N/N=C/c2ccc(C)cc2)CCC3)c1` [Compound 811, 3-[(2-Diethylamino-ethylamino)-methyl]-N-[3-(4-methyl-benzylidene-hydrazinocarbonyl)-5,6-dihydro-4H-cyclopenta[b]thiophen-2-yl]-benzamide], the IC50 at rat NaPi-2b turned out to be 9.11 µM; against human NaPi-2a it was 37.2 µM.

A word on the IC50: it is the concentration needed to halve the response being measured.
